Literature values in paper PMC7866862, “Screening, Optimization, and Bioavailability Research of Natural Deep Eutectic Solvent Extracts from Radix Pueraria” (Molecules, 2021).

Columns and labels:
[1] = parameters: method as in PMID 28165806
[2] = parameters: method as in PMID 30275390; settings: oral, NSSPE study

Structure (SMILES): O=c1c(-c2ccc(O)cc2)coc2c([C@@H]3O[C@H](CO)[C@@H](O)[C@H](O)[C@H]3O)c(O)ccc12 [PUE, 8-β-D-glucopyranose-4′,7-dihydroxyisoflavone]
- Oral bioavailability of PUE [1]: about 7%
- Cmax of PUE [2]: 634.17 ng/mL
